Assays:
[1] = Relative lipophilicity (capacity factor k’) by reversed-phase HPLC; assay type: physicochemical; details: methanol-phosphoric acid buffer eluent, pH 2
Method: The relative lipophilicity of 6 was determined as capacity factor k’ (k’ = (tretention - tsolvent) / tsolvent) by reversed-phase HPLC using a methanol-phosphoric acid buffer eluent system at pH 2. […] This method has already been described elsewhere. The capacity factor k’ (k’ = (tretention - tsolvent) / tsolvent) was determined using reversed-phase HPLC and enables different (radio)folates to be compared based on their polarity. The values determined can be used to give hint to the in vivo behavior in terms of the degree of hepatobiliary excretion by comparison with literature examples.

folate receptor = target: T1, folate receptor (Homo sapiens, UniProt P15328); assay: Displacement assay with [^3H]folic acid on FR-positive human KB cells; assay type: binding; details: Cheng-Prusoff equation, assuming Kd of [^3H]folic acid 1 nM
T1 construct: using [^3H]folic acid and human KB cells in cell suspension; endogenous in cells; host or cells: human KB cells
T1 sequence (P15328 25-257): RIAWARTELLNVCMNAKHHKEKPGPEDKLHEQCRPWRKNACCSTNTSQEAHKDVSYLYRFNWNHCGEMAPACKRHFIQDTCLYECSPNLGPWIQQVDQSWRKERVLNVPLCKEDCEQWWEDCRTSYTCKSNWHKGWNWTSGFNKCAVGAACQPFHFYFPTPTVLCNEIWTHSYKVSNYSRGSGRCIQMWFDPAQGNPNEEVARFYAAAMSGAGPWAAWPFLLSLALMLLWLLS
Method: FR-positive human KB cells were kept under folate-deficient conditions to adjust the folate concentration levels to that of the human serum.
Figure 1 Displacement assay. […] Experiments were conducted in triplicate (n = 3).

[2] = In vitro metabolite/stability study in fetal calf serum; assay type: in vitro ADME; details: FCS, 37°C, 15, 30, 60 and 90 min
Method: A solution of [^18 F]12 (50 μL, approximately 5 MBq) was incubated with 500 μL of fetal calf serum (FCS) at 37°C and the mixture shaken at 900 rpm. The time points were set between 0 and 90 min using 500 μL of FCS and 50 μL of the radiotracer for each time point. Plasma proteins were precipitated by addition of cold acetonitrile (300 μL), followed by centrifugation (10,000 rpm, 10 min). An aliquot of each time point (15, 30, 60, and 90 min, 100 μL) was injected into the analytical radio-HPLC system for analytics.
The stability of the new radiotracer, [^18 F]12, was evaluated in the presence of FCS. For this purpose, [^18 F]12 was added to FCS and incubated at 37°C. At certain time points (15, 30, 60, and 90 min), aliquots were extracted and proteins removed by precipitation. The integrity of the radiotracer was determined by analytical radio-HPLC.

KB tumor-bearing mice = assay: In vivo μPET imaging of KB tumor-bearing mice; details: scan 60 to 90 min p.i., approximately 13 MBq
Method: All animal experiments were approved by the local veterinary department and complied with Swiss and local laws on animal protection. Female CD-1 nude mice (Charles River, Sulzfeld, Germany) were fed with a folate-deficient rodent diet (Harlan Laboratories, Indianapolis, IN, USA). After an acclimatization period of 5 to 7 days, human KB tumor cells (5 × 10^6 cells in 0.1 mL sterile phosphate-buffered saline (PBS)) were inoculated subcutaneously on both shoulders of each mouse. Twelve days later, the animals were intravenously injected with [^18 F]12 (approximately 5 MBq, 100 μL). […] Animals were euthanized at the indicated time points, and selected organs and tissues were collected, weighed, and measured in a γ-counter. The incorporated radioactivity was expressed as percentage injected dose per gram (%ID/g) of tissue. PET/computed tomography (CT) experiments were performed with a dedicated small-animal PET/CT scanner (eXplore Vista PET/CT, Sedecal, Algete, Spain/GE Healthcare). Animals were intravenously injected with [^18 F]12 (approximately 13 MBq, 100 μL). For scanning, mice were anesthetized with isoflurane in an air/oxygen mixture. The PET scans were acquired from 60 to 90 min post-injection (p.i.) followed by a CT. After acquisition, PET data were reconstructed in user-defined time frames, and the fused datasets of PET and CT were analyzed with PMOD software (version 3.4). […]

16-(4-(((2-amino-4-oxo-3,4-dihydropteridin-6-yl)methyl)amino)benzamido)-1-(4-(2-(2-(2-[^18 F]fluoroethoxy)ethoxy)ethoxy)-1H-1,2,3-triazol-1-yl)-13-oxo-3,6,9-trioxa-12-azaheptadecan-17-oic acid [[^18 F]12]
capacity factor k’ [1]: 1.12 | Ki (folate receptor): 1.6 nM | stability in fetal calf serum (radio-HPLC) [2]: No degradation or defluorination | tumor visualization in μPET (KB tumor-bearing mice): facilitated visualization of FR-positive tumors on the maximum intensity projection

Reference: article PMC3849131, “^18 F-click labeling and preclinical evaluation of a new ^18 F-folate for PET imaging” (EJNMMI Research, 2013)
